Broadly, the EC50 is the midpoint of the concentration-response curve.

Assay [1] has as its system LeuT. In words: Scintillation proximity assay, time course of 3H-substrate binding to LeuT with or without Na+ pre-incubation. More on the design: species or system Aquifex aeolicus. Conditions: 3H-Leu 100 nM or 3H-Ala 500 nM, LeuT wild type. As for the experimental part:
We bound ^3H-leucine (140 Ci mmol^–1; Moravek) to purified LeuT-variants using the scintillation proximity assay (SPA) as described[17],[18] with 25 ng of purified protein per assay in buffer composed of 50 mM Tris/Mes (pH 8.0), 100 mM NaCl, 1 mM TCEP, 20% glycerol and 1 mM DDM.
Supplementary Figure 5. Pre-incubation of LeuT with Na+ modulates substrate binding.
The time course of binding of (a,c,d) 3H-Leu (100 nM) or (b) 3H-Ala (500 nM) to LeuT wild type (WT; a,b) or LeuT-L400S (c) or -F253A (d) in the absence (open black squares) or presence (filled red circles) of Na+ was measured using the scintillation proximity assay4 (see Methods). Data are shown as mean ± s.e.m. of three technical replicates of a representative experiment performed in parallel (experiments with individual mutants were repeated ≥ 2) and normalized with regard to the steady state level of LeuT-WT. […]
In general terms: In a scintillation proximity assay essentially only radioactivity close to the scintillant gives light.

For assay [2], the system named is LeuT. Nature of the assay: smFRET imaging of extracellular-labeled LeuT (K239C/H480C), FRET state occupancy and dynamics. Format: biochemical, Aquifex aeolicus. Conditions: no substrate.
Protocol: Fluorescence experiments were performed using a prism-based total internal reflection fluorescence (TIRF) microscope as previously described[15],[16]. Microfluidic imaging chambers passivated with a mixture of PEG and biotin-PEG were prepared with 0.8 µM streptavidin (Invitrogen) and 4 nM biotin-tris-(NTA-Ni^2+)[46]. Fluorophore labeled, His-tagged LeuT molecules were reversibly immobilized to the surface-associated Ni^2+ atoms. LD550 (Cy3) fluorophores were excited by the evanescent wave generated by total internal reflection (TIR) of a 532 nm diode-pumped solid state laser (Opus, Laser Quantum). […] Fluorescence data were acquired using custom software implemented in LabView (National Instruments) at 10 frames per second (100 ms time resolution). […]
(§1) Analysis of single-molecule fluorescence data was performed using custom software written in MATLAB (MathWorks)[22]. […] FRET traces were calculated as EFRET=IA∕(IA+ID) , where IA and ID are the donor and acceptor fluorescence traces, and set to zero whenever the donor was in the dark state. […] SNRSignal (12:1 on average) is the signal magnitude relative to noise within the fluorescence trace prior to photobleaching, which includes all noise sources, including photon statistics and photophysical noise, in addition to background noise. […]
The test system of assay [3] is LeuT. Nature of the assay: smFRET imaging of intracellular-labeled LeuT (H7C/R86C), FRET state occupancy and dynamics. Type of assay: biochemical, Aquifex aeolicus.
Protocol: Fluorescence experiments were performed using a prism-based total internal reflection fluorescence (TIRF) microscope as previously described[15],[16]. Microfluidic imaging chambers passivated with a mixture of PEG and biotin-PEG were prepared with 0.8 µM streptavidin (Invitrogen) and 4 nM biotin-tris-(NTA-Ni^2+)[46]. Fluorophore labeled, His-tagged LeuT molecules were reversibly immobilized to the surface-associated Ni^2+ atoms. LD550 (Cy3) fluorophores were excited by the evanescent wave generated by total internal reflection (TIR) of a 532 nm diode-pumped solid state laser (Opus, Laser Quantum). Photons emitted from LD550 (Cy3) and LD650 (Cy5) were collected using a 1.27 NA 60 × PlanApo water-immersion objective (Nikon) and a MultiCam-LS device (Cairn) with a T635lpxr-UF2 dichroic mirror (Chroma) to separate the spectral channels onto two synchronized sCMOS cameras (Flash 4.0 v2, Hamamatsu). Fluorescence data were acquired using custom software implemented in LabView (National Instruments) at 10 frames per second (100 ms time resolution).
Unless otherwise specified, all experiments were performed at 25 °C in buffer containing 50 mM Tris/Mes (pH 7.0), 10% glycerol, 1 mM DDM (Anatrace), 1 mM 2-mercaptoethanol and 200 mM total salt (KCl and NaCl, as specified). An oxygen-scavenging environment consisting of 0.2 units per ml purified glucose oxidase (Sigma G2133), 1.8 units per μl purified catalase (Sigma C40), 0.1% (v/v) glucose was used in all experiments to minimize photobleaching.
as §1

With `C[C@H](N)C(=O)O` [Ala, alanine], in assay [1], the “Effect of pre-incubating LeuT with Na+ on the rate of substrate binding” value is “no such delay in binding”. `CC(C)C[C@H](N)C(=O)O` [Leu, leucine]: in assay [1], the “Effect of pre-incubating LeuT with Na+ on the rate of substrate binding” value was “dramatically slowed”.

Turning to `[Li+]` [Li^+], the “EC50 for inducing high-FRET state stabilization, fold higher than for Na+” value in assay [2] (extracellular side) was “seven-fold higher”. Moreover, the EC50 in assay [3] (LiCl titration in the presence of 250 μM Ala, Hill coefficient fixed at 2.0, read-out: EC50 of dose-response fit of intracellular high-FRET state occupancy) stood at 100 mM; in assay [3] (LiCl titration in the presence of 250 μM Ala, Hill coefficient fixed at 2.0, read-out: EC50 of dose-response fit of intracellular intermediate-FRET state occupancy), 67 mM.

In the case of `[Na+]` [Na^+, sodium], the concentration for a half-maximal effect (EC50) in assay [2] (Na+ titration, Hill coefficient fixed at 2.0, read-out: EC50 of dose-response fit of extracellular FRET state occupancy) was 55 mM; in assay [3] (NaCl titration in the presence of 250 μM Ala, read-out: EC50 values of dose-response fits of intracellular low-, intermediate- and high-FRET state occupancies) it was 8 to 20 mM.

Source of the values: article PMC5768729, “A partially-open inward-facing intermediate conformation of LeuT is associated with Na^+ release and substrate transport” (Nature Communications, 2018).
